Columns and labels:
[1] = system: AAT-induced hearing loss; test: Chinchilla AAT model, oral treatment, ABR threshold shift; assay type: in vivo, chinchilla laniger
Method: The treatments were administered a total of five times including one dose 4 hours post-AAT, and two doses daily on days 1 and 2 post AAT.
Hearing was assessed as auditory brainstem response (ABR) which was measured at between 1 and 3 days prior to AAT and at one or more of the following time points post AAT: 1 hr, 8 hr, 24 hr 7 day and 21 days. The 21 day test point was considered the permanent threshold shift (PTS). ABR recordings were performed under light ketamine (20 mg/kg) and xylazine (1 mg/kg) anesthesia. Small supplemental doses (⅓ of initial dose) were given if needed. ABR thresholds were recorded from subcutaneous needle electrodes placed under the skin of the head. […] Auditory stimuli was generated using a computer-aided system (Intelligent Hearing Systems, Miami, Fla.) coupled to high frequency transducers. Acoustic stimuli were tone pips (5 ms duration and 1 ms Blackman rise and fall) at frequencies of 0.5, 1, 2, 4, 6, 8, and 16 kHz. All acoustic stimuli were transduced through the computer-controlled attenuator to a 3A insert earphone [Etyniotic Research (ER)-3A, Etymotic Research Inc., Elk Grove Village, Ill.] placed about 5 mm from the tympanic membrane. The insert earphone was calibrated with a coupler mounted to the sound level meter approximating its placement. The electrical responses obtained from the electrodes were amplified (×100,000), filtered (100-3,000 Hz), and digitized through an A/D converter on a signal processing board. They were averaged at a sample rate of 1024 for each level.
Hearing thresholds were tested in 10 dB descending steps until near the threshold, and then 5 dB ascending steps were taken to determine the threshold. Threshold was defined as the midpoint between the lowest level of a clear response and the next level where no response was observed. The threshold shift refers to the difference in threshold prior to and following AAT. The investigators performing the ABR measurements were blinded as to the identity of the animal groups.
Statistically significant differences in threshold shifts were tested via ANOVA (SPSS 14.0 for Windows).

[2] = system: AAT-induced hearing loss; test: Chinchilla AAT model, NAC intraperitoneal, ABR threshold shift; assay type: in vivo; settings: FIG. 3; for threshold shift at 21 days following AAT exposure: p<0.05
Method: For the experiments and examples described herein, the following methods were generally employed except for those described with respect to FIG. 5. Female adult chinchilla laniger (Mouton Chinchilla Ranch, Rochester, Minn.) weighing 500-850 grams were placed, two at a time, in two small wire restraint cages on a wooden plate where the AAT was induced by a 105 dB SPL octave-band noise centered at 4 kHz for 6 hours in a sound isolation booth [Industrial Acoustics Company (IAC), New York, N.Y.]. The noise was digitally generated by a Tucker Davis Technologies (TDT, Alachua, Fla.) device and passed through a real time attenuator (TDT, RP2), filtered, amplified with a preamplifier (QSC audio power, Costa Mesa, Calif.), and transduced with a high frequency acoustic driver and an acoustic speaker (JBL 2350, Northridge, Calif.) suspended from the ceiling of the sound booth which is placed directly above the wire cages. Before noise exposure, the sound spectrum output of the system was calibrated with a sound level meter centered at an octave bandwidth of 4 kHz. A condenser microphone (B&K 2804, Norcross, Ga.) coupled to the preamplifier was placed between the two wire cages at the level of the animals' heads to monitor the noise level. During noise exposure, the noise level was continually and visually monitored using the PULSE software system [B&K Sound & Vibration Measurement (version 10.0), Norcross, Ga.] including FFT Analysis Type 7770 and CPB Analysis 7771. […]
Hearing was assessed as auditory brainstem response (ABR) which was measured at between 1 and 3 days prior to AAT and at one or more of the following time points post AAT: 1 hr, 8 hr, 24 hr 7 day and 21 days. […] ABR thresholds were recorded from subcutaneous needle electrodes placed under the skin of the head. […]

Row | Compound | average threshold shift at each individual frequency (0.5, 1, 2, 4, 6 and 8 kHz) ([1]; 300 mg/kg oral, compared to control, FIG. 2) | average threshold shift across all frequencies tested ([1]; 21 days post AAT, 300 mg/kg oral, five doses from 4 hours post-AAT, compared to control animals, FIG. 1) | average threshold shift for each individual frequency tested ([1]; 21 days post AAT, oral, 300 mg/kg HPN-07 alone or + 300 mg/kg NAC, vs control (10% sucrose), FIG. 4A) | combined average threshold shift from 2 kHz to 8 kHz ([1]; 21 days post AAT, oral, vs control, FIG. 4B) | outer hair cell loss ([1]; expected in view of ABR data, compared to the control group) | protection from hearing loss due to AAT ([1]; oral administration to chinchillas exposed to AAT, summary statement) | threshold shift at 21 days following AAT exposure ([2]; 100 mg/kg NAC i.p.) | threshold shift at 21 days following AAT exposure ([2]; 200 mg/kg NAC i.p.) | threshold shift soon after treatment ([2]; NAC i.p. 4 hours post AAT)
1 | CC(C)(C)[N+]([O-])=Cc1ccc(S(=O)(=O)O)cc1S(=O)(=O)O [HPN-07, 2,4-disulfonyl α-phenyl tertiary butyl nitrone] | most pronounced effect of HPN-07 occurred at 0.5, 1, 6 and 8 kHz, while the effect was less prominent at 2 and 4 kHz | significantly decreased average threshold shift | significant reduction in threshold shift at 0.5, 1, 4 and 6 kHz | overall significant reduction in threshold shift | statistically significant reduction in outer hair cell loss | significantly protected them from hearing loss |  |  | 
2 | CC(=O)N[C@@H](CS)C(=O)O [NAC, N-acetylcysteine] |  |  |  |  |  |  | significant decrease in threshold shift | significant decrease in threshold shift | mild effect on threshold shift

Source: patent US10555915B2, “Methods for treating acute acoustic trauma” (Hough Ear Institute, priority 2009, dated 2020)
